Patent US20120252721A1 (priority 2011, published 2012)
pEC50: −log10 of the molar value.

Tests used:
[1] = tested on: HCV Con1 subgenomic replicon (GS4.1 cells); assay: HCV replicon assay (NS5A ELISA, 72 hrs); type: cell-based; conditions: Hepatitis C virus
Protocol: Huh-7 cells containing HCV Con1 subgenomic replicon (GS4.1 cells) were grown in Dulbecco's Modified Eagle Medium (DMEM) supplemented with 10% fetal bovine serum (FBS), 2 mM L-glutamine, 110 mg/L sodium pyruvate, 1× non-essential amino acids, 100 U/mL penicillin-streptomycin, and 0.5 mg/mL G418 (Invitrogen). For dose-response testing, the cells were seeded in 96-well plates at 7.5×10^3 cells/well in a volume of 50 μL, and incubated at 37° C./5% CO2. Three hours after plating, 50 μL often 2-fold serial dilutions of compounds (highest concentration, 75 μM) were added, and cell cultures were incubated at 37° C./5% CO2 in the presence of 0.5% DMSO. Alternatively, compounds were tested at a single concentration of 15 μM. In all cases, Huh-7 cells lacking the HCV replicon served as negative control. The cells were incubated in the presence of compounds for 72 hrs after which they were monitored for expression of the NS5A protein by enzyme-linked immunosorbent assay (ELISA). For this, the plates were then fixed for 1 min with acetone/methanol (1:1, v/v), washed twice with phosphate-buffered saline (PBS), 0.1% Tween 20, blocked for 1 hr at room temperature with TNE buffer containing 10% FBS and then incubated for 2 hr at 37° C. with the anti-NS5A mouse monoclonal antibody A-236 (ViroGen) diluted in the same buffer. After washing three times with PBS, 0.1% Tween 20, the cells were incubated 1 hr at 37° C. with anti-mouse immunoglobulin G-peroxidase conjugate in TNE, 10% FBS. After washing as described above, the reaction was developed with O-phenylenediamine (Zymed). The reaction was stopped after 30 min with 2 NH2SO4, and absorbance was read at 492 nm using Sunrise Tecan spectrophotometer. EC50 values were determined from the % inhibition versus concentration data using a sigmoidal non-linear regression analysis based on four parameters with Tecan Magellan software.

in vitro = type: cell-based; conditions: human; GS4.1 cells, cellular viability
Protocol: For cytotoxicity evaluation, GS4.1 cells were treated with compounds as described above and cellular viability was monitored using the Cell Titer 96 AQeous One Solution Cell Proliferation Assay (Promega). CC50 values were determined from the % cytotoxicity versus concentration data with Tecan Magellan software as described above.

[2] = tested on: HCV genotype 1a H77 strain subgenomic luciferase replicon (H1a-luc); assay: Luciferase replicon assay, genotype 1a; type: cell-based; conditions: Hepatitis C virus, read-out: EC50 1a
Protocol: Drug titration analysis was performed using the luciferase replicon assay described herein.
(§1) The HCV luciferase replicon assay measures the ability of a test compound to inhibit HCV replication in cell culture after 3 days of treatment in a human hepatoma cell line (Huh-7) bearing an HCV replicon containing a luciferase-neomycin phosphotransferase fusion gene. The inhibition of HCV replication was measured by quantification of luciferase protein expression. Briefly, Huh-7 cells containing either the HCV genotype 1a H77 strain or genotype 1b Con1 strain subgenomic luciferase replicon (H1a-luc or Zluc, respectively) were grown in DMEM containing glucose, L-glutamine and sodium pyruvate, 10% fetal bovine serum (FBS), 100 IU/mL penicillin, 100 μg/mL streptomycin, 2 mM GlutaMAX, non-essential amino acids and 0.25 (H1a-luc) or 0.5 (Zluc) mg/mL G418. GlutaMAX was obtained from Invitrogen, Corp.; all other media reagents were obtained from Mediatech, Inc. For dose-response testing, the cells were seeded in 96-well plates at 1×10^4 (H1a-luc) or 7.5×10^3 (Zluc) cells/well in a volume of 50 μL, and incubated at 37° C./5% CO2. Three hours after plating, 50 μL of ten 5-fold serial dilutions of compound were added, and cell cultures were incubated at 37° C./5% CO2 for 72 hours. In all cases, Huh-7 cells lacking the HCV replicon served as negative control. To assess luciferase expression, the media/compound was removed from the plates and ONE-glo Luciferase assay reagent (Promega) was added to each well. The assay plates were shaken for 3 minutes at room temperature and luciferase activity for each well was measured with a 1 sec read time on the Victor^3V multilabel counter using a 700 nm cut-off filter (Perkin Elmer). EC50 values were calculated from dose response curves from the resulting best-fit equations determined by Microsoft Excel and XLfit 4.1 software.

H1a-luc or Zluc cells = assay: in vitro; type: cell-based, human; conditions: Table 1B, cellular viability
Protocol: (§2) For cytotoxicity evaluation, HPC cells were treated with compounds as described above in the absence of the genotype 2a virus and cellular viability was monitored using the Cell Titer 96 AQueous One Solution Cell Proliferation Assay (Promega). Plates were then read at 490 nm in a Victor^3V 1420 multilabel counter (Perkin Elmer) and CC50 concentrations were determined using Microsoft Excel and XLfit 4.1 software.
as §2, with “H1a-luc or Zluc” for “HPC”, “above” for “above in the absence of the genotype 2a virus”

[3] = tested on: HCV genotype 1b Con1 strain subgenomic luciferase replicon (Zluc); assay: Luciferase replicon assay, genotype 1b; type: cell-based; conditions: Hepatitis C virus
Protocol: as §1

Row | Compound | pEC50 [1] | CC50 (in vitro) | pEC50 [2] | CC50 (H1a-luc or Zluc cells) | pEC50 [3]
1 | COC(=O)N[C@H](C(=O)N1CCCC1c1ncc(-c2cc3sc(-c4ncc(-c5c[nH]c([C@@H]6CCCN6C(=O)[C@@H](NC(=O)OC)C(C)C)n5)s4)cc3s2)[nH]1)C(C)C (stereo partly drawn) [Compound A130] | > 9.00 | > 75000 nM | – | – | –
2 | COC(=O)N[C@H](C(=O)N1CCC[C@H]1C(=O)Nc1cn2cc(-c3ccc(NC(=O)CNC(=O)[C@H](NC(=O)OC(C)(C)C)c4ccccc4)cc3)sc2n1)C(C)C [Compound A147] | 7.00 to 8.00 | > 75000 nM | – | – | –
3 | COC(=O)N[C@H](C(=O)N1CCC[C@H]1c1ncc(-c2ccc(-c3cn4cc(NC(=O)CNC(=O)[C@H](NC(=O)OC(C)(C)C)c5ccccc5)nc4s3)cc2)[nH]1)C(C)C [Compound A148] | 8.00 to 9.00 | > 75000 nM | – | – | –
4 | COC(=O)N[C@H](C(=O)N1CCC[C@H]1C(=O)Nc1cn2cc(-c3cccc(NC(=O)[C@@H]4CCCN4C(=O)[C@H](NC(=O)OC)c4ccccc4)c3)sc2n1)C(C)C [Compound A149] | 7.00 to 8.00 | 10000 to 75000 nM | – | – | –
5 | COC(=O)N[C@H](C(=O)N1CCC[C@H]1c1ncc(-c2ccc(-c3cn4cc(NC(=O)[C@@H]5CCCN5)nc4s3)cc2)[nH]1)C(C)C [Compound A150] | 7.00 to 8.00 | 10000 to 75000 nM | – | – | –
6 | COC(=O)N[C@H](C(=O)N1CCCC1c1ncc(-c2ccc(-c3csc4c(-c5cnc(C6CCCN6C(=O)OC(C)(C)C)[nH]5)csc34)cc2)[nH]1)C(C)C (stereo partly drawn) [Compound A151] | > 9.00 | 10000 to 75000 nM | – | – | –
7 | CC(C)(C)OC(=O)N1CCCC1c1ncc(-c2cn3cc(-c4ccc(Cl)cc4)sc3n2)[nH]1 (stereo not drawn) [Compound A152] | < 7.00 | 10000 to 75000 nM | – | – | –
8 | COC(=O)N[C@H](C(=O)N1CCCC1c1ncc(-c2cn3cc(-c4ccc(Cl)cc4)sc3n2)[nH]1)C(C)C (stereo partly drawn) [Compound A153] | 7.00 to 8.00 | 10000 to 75000 nM | – | – | –
9 | COC(=O)N[C@H](C(=O)N1CCCC1c1ncc(-c2ccc(-c3ccc(-c4nc5sccn5c4Cl)cc3)cc2)[nH]1)C(C)C (stereo partly drawn) [Compound A154] | 7.00 to 8.00 | 10000 to 75000 nM | – | – | –
10 | COC(=O)N[C@H](C(=O)N1CCC[C@H]1c1ncc(-c2ccc(-c3csc4c(Br)csc34)cc2)[nH]1)C(C)C [Compound A155, [(S)-1-((S)-2-{4-[4-(6-bromo-thieno[3,2-b]thiophen-3-yl)-phenyl]-1H-imidazol-2-yl}-pyrrolidine-1-carbonyl)-2-methyl-propyl]-carbamic acid methyl ester] | 7.00 to 8.00 | 10000 to 75000 nM | – | – | –
11 | COC(=O)N[C@H](C(=O)N1CCC[C@H]1c1cc(-c2ccc(-c3cn4cc(NC(=O)[C@@H]5CCCN5C(=O)[C@H](NC(=O)OC(C)C)c5ccccc5)nc4s3)cc2)[nH]n1)C(C)C [Compound A156] | > 9.00 | > 75000 nM | – | – | –
12 | CC(C)(C)OC(=O)N1CCCC1c1nc(-c2ccc(-c3cn4cc(-c5ccc(-c6cnc([C@@H]7CCCN7C(=O)OC(C)(C)C)[nH]6)cc5)sc4n3)cc2)c[nH]1 (stereo partly drawn) [Compound A157] | 7.00 to 8.00 | > 75000 nM | – | – | –
13 | CC(C)(C)OC(=O)N1CCC[C@H]1c1ncc(-c2ccc(-c3cn4c(-c5ccccc5)csc4n3)cc2)[nH]1 [Compound A158] | < 7.00 | 10000 to 75000 nM | – | – | –
14 | COC(=O)N[C@H](C(=O)N1CCCC1c1nc(-c2ccc(-c3cc4sc(-c5ccc(-c6cnc([C@@H]7CCCN7C(=O)[C@@H](NC(=O)OC)C(C)C)[nH]6)cc5)cc4s3)cc2)c[nH]1)C(C)C (stereo partly drawn) [Compound A159] | > 9.00 | > 75000 nM | – | – | –
15 | COC(=O)N[C@H](C(=O)N1CCCC1c1ncc(-c2ccc(-c3cn4ccsc4n3)cc2)[nH]1)C(C)C (stereo partly drawn) [Compound A160] | 7.00 to 8.00 | > 75000 nM | – | – | –
16 | CC(C)(C)OC(=O)N1CCCC1c1ncc(-c2ccc(-c3nc4sccn4c3Cl)cc2)[nH]1 (stereo not drawn) [Compound A161] | < 7.00 | > 75000 nM | – | – | –
17 | COC(=O)N[C@H](C(=O)N1CCCC1c1ncc(-c2ccc(-c3cn4c(-c5ccccc5)csc4n3)cc2)[nH]1)C(C)C (stereo partly drawn) [Compound A162] | 8.00 to 9.00 | 10000 to 75000 nM | – | – | –
18 | COC(=O)N[C@H](C(=O)N1CCCC1c1nc(-c2ccc(-c3c(C(=O)OC)[nH]c4c(-c5ccc(-c6cnc(C7CCCN7C(=O)[C@@H](NC(=O)OC)C(C)C)[nH]6)cc5)csc34)cc2)c[nH]1)C(C)C (stereo partly drawn) [Compound A163] | > 9.00 | > 75000 nM | – | – | –
19 | COC(=O)N[C@H](C(=O)N1CCCC1c1ncc(-c2ccc(-c3csc4cc(C(=O)OC)[nH]c34)cc2)[nH]1)C(C)C (stereo partly drawn) [Compound A164] | 7.00 to 8.00 | 10000 to 75000 nM | – | – | –
20 | COC(=O)N[C@H](C(=O)N1CCCC1c1ncc(-c2ccc(-c3cc4sc(Br)cc4s3)cc2)[nH]1)C(C)C (stereo partly drawn) [Compound A168] | 7.00 to 8.00 | 10000 to 75000 nM | – | – | –
21 | COC(=O)N[C@H](C(=O)N1CCC[C@H]1c1ncc(-c2ccc(-c3csc4c(-c5cnc([C@@H]6CCCN6C(=O)[C@H](NC(=O)OC)c6ccccc6)[nH]5)csc34)cc2)[nH]1)C(C)C [Compound A200, [(S)-1-((S)-2-{4-[4-(6-{2-[(S)-1-((R)-2-methoxycarbonylamino-2-phenyl-acetyl)-pyrrolidin-2-yl]-3H-imidazol-4-yl}-thieno[3,2-b]thiophen-3-yl)-phenyl]-1H-imidazol-2-yl}-pyrrolidine-1-carbonyl)-2-methyl-propyl]-carbamic acid methyl ester] | – | – | 9.00 to 10.00 | > 75000 nM | > 10.00
22 | COC(=O)N[C@H](C(=O)N1CCCC1c1nc(-c2cc3sc(-c4ccc(-c5cnc([C@@H]6CCCN6C(=O)[C@@H](c6ccccc6)N6CCCCC6)[nH]5)cc4)cc3o2)c[nH]1)C(C)C (stereo partly drawn) [Compound A212] | – | – | > 10.00 | 10000 to 75000 nM | > 10.00
23 | COC(=O)N[C@H](C(=O)N1CCCC1c1ncc(-c2ccc(-n3ccc4c(-c5cnc(C6CCCN6C(=O)[C@@H](NC(=O)OC)C(C)C)[nH]5)csc43)c(Cl)c2)[nH]1)C(C)C (stereo partly drawn) [Compound A213] | – | – | 9.00 to 10.00 | – | > 10.00
24 | COC(=O)N[C@H](C(=O)N1CCC[C@H]1c1nc2ccc(-c3cc4sc(-c5ccc(-c6c[nH]c([C@@H]7CCCN7C(=O)[C@H](NC(=O)OC)c7ccccc7)n6)cc5)cc4s3)cc2[nH]1)C(C)C [Compound A215, [(S)-1-((S)-2-{6-[5-(4-{(S)-2-[1-((R)-2-methoxycarbonylamino-2-phenyl-acetyl)-pyrrolidin-2-yl]-1H-imidazol-4-yl}-phenyl)-thieno[3,2-b]thiophen-2-yl)-1H-benzoimidazol-2-yl}-pyrrolidine-1-carbonyl)-2-methyl-propyl]-carbamic acid methyl ester] | – | – | > 10.00 | > 75000 nM | > 10.00
25 | COC(=O)N[C@H](C(=O)N1CCCC1c1ncc(-c2cc3sc(-c4ccc(-c5cnc([C@@H]6CCCN6C(=O)[C@H](NC(=O)OC)c6ccccc6)[nH]5)cc4)cc3s2)[nH]1)C(C)C (stereo partly drawn) [Compound A217] | – | – | > 10.00 | > 75000 nM | > 10.00
